Measured values reported in PubChem BioAssay AID1053172 (The Scripps Research Institute Molecular Screening Center, 2014).
The source made the active and inactive calls. No rule for the calls is given here.

Each molecule was assayed against HIV-1 integrase / human LEDGF/p75 complex (assay: blockers of LEDGF/p75-dependent integrase activity – biochemical, TR-FRET, dose response (AID 1053172)). Settings: TR-FRET integrase-LEDGF/p75 DNA integration.

Compound	IC50
O=C(CCc1ccc(S(=O)(=O)N2CCOCC2)cc1)N/N=C/c1ccc(O)c(O)c1O	inactive
O=C1c2c(O)cc(O)cc2O[C@@]12c1c(cc(O)c3c1O[C@H](c1ccc(O)cc1)[C@@H](O)C3)O[C@@H]2c1ccc(O)cc1	inactive
Oc1ccc(C=Nc2ccc(N3CCOCC3)cc2)c(O)c1	inactive
O=C1NC(=Nc2ccc(O)cc2)S/C1=C\C=C\c1ccco1	4.08 µM
O=C(CCCN1C(=O)/C(=C/c2ccco2)SC1=S)Nc1ccccc1C(=O)O	8.37 µM
CN=c1scc(C)n1/N=C/c1ccc(O)c(O)c1O	4.74 µM
C/C(=N/NC(=O)c1cc(O)c(O)c(O)c1)c1ccc([N+](=O)[O-])cc1	2.12 µM
CSc1nc(N(CCO)CCO)c2sc3nc(-c4ccco4)c4c(c3c2n1)CCC4	4.85 µM
CN(CCC#N)C(=O)COC(=O)c1c2c(nc3ccccc13)/C(=C\c1ccco1)CC2	2.56 µM
Cc1c(O)cc2c(c1O)C(=O)CC(c1ccc(O)cc1)O2 (stereo unspecified)	9.39 µM
NC1=NC(=O)/C(=C\c2ccco2)S1	3.99 µM
O=C(O)COc1ccc2c(c1)O/C(=C\c1ccco1)C2=O	1.61 µM
CCN=c1scc(C)n1/N=C/c1ccc(O)c(O)c1O	5.61 µM
Oc1ccc(-c2cn3c(n2)SCC3)cc1O	1.48 µM
O=C1NC(=S)NC(=O)C1=Cc1cccn1-c1ccc(O)cc1	2.21 µM
COc1ccc2[nH]c3c(C)c4cc[n+](C)cc4c(C)c3c2c1	5.11 µM
O=C(Cc1csc(N2CCOCC2)n1)N/N=C/c1ccc(O)c(O)c1O	0.927 µM
CN(C)[C@@H]1C(=O)C(C(N)=O)=C(O)[C@@]2(O)C(=O)C3=C(O)c4c(O)cccc4[C@@](C)(O)C3[C@H](O)C12 (stereo partly specified)	inactive
O=[N+]([O-])c1ccccc1NC(=S)N/N=C/c1ccc(O)c(O)c1	2.51 µM
CC(C)(CS(=O)(=O)[O-])NC(=O)CC[N+](C)(C)CCO	3.06 µM
N#Cc1c(SCC(=O)Nc2nccs2)sc2c(O)cc(=O)[nH]c12	8.63 µM
C=CC1=C(C(=O)O)N2C(=O)[C@@H](NC(=O)/C(=N\OCC(=O)O)c3csc(N)n3)[C@H]2SC1	2.89 µM
O=S(=O)(O)c1cc(Cl)cc(N=Nc2ccc(O)cc2O)c1O	9.94 µM
Cc1ccc(N2C(=O)NC(=O)/C(=C/c3ccoc3)C2=O)cc1	2 µM
O=C1C=C(O)c2[nH]c(=O)ccc2C1=O	3.8 µM
COc1ccccc1OCC(=O)N/N=C/C=C/c1ccc([N+](=O)[O-])o1	> 36.5 µM (inactive)

Compound	IC50
O=S(=O)(O)c1cc(O)c2cc(Nc3ccccc3)ccc2c1	2.73 µM
Oc1ccc(/C=N/N=C(c2ccccc2)c2ccccc2)c(O)c1O	1.08 µM
Cc1cc(/C=C2\C(=O)NC(=O)N(c3ccccc3F)C2=O)c(C)n1-c1cc(C(=O)O)cc(C(=O)O)c1	0.815 µM
COc1ccc(NC(=S)Nc2ccc3nsnc3c2)cc1	inactive
O=C1/C(=C/C=C/c2ccco2)SC(=S)N1c1ccc(O)cc1	2.66 µM
CCCCCn1c(NC(=O)c2ccco2)c(S(=O)(=O)c2ccc(C)cc2)c2nc3ccccc3nc21	inactive
O=c1cc(-c2ccc(O)cc2)oc2cc(O)c(C3OC(CO)C(O)C(O)C3O)c(O)c12 (stereo unspecified)	5.96 µM
Cc1csc(NC(=O)CSc2sc3c(O)cc(=O)[nH]c3c2C#N)n1	9.73 µM
CCOc1ccc(NC(=O)CN(C)C(=O)c2cc3c(s2)CCC3)cc1OCC	9.57 µM
O=C(O)c1cccc2cccc(-c3c4ccc(=O)c(O)c-4oc4c(O)c(O)ccc34)c12	0.369 µM
CC1=CC(C)(C)N2C(=O)C(=Nc3ccc(O)cc3)c3cccc1c32	> 12.2 µM (inactive)
O=C1/C(=C\c2ccc(O)c(O)c2)C(c2ccccc2)=NN1c1ccccc1	inactive
Cc1ccc(/C=C/C(=O)Nc2ccc([N+](=O)[O-])c(NC(=O)/C=C/c3ccc(C)o3)c2)o1	inactive
O=C1CCCC(O)=C1N=Nc1ccc(C(=O)O)cc1	2.41 µM
C=CCn1c(SCC(=O)c2ccc(O)c(O)c2)nnc1-c1cccnc1	2.39 µM
C=CC(=O)N1C/C(=C/c2ccc(F)cc2)C(=O)/C(=C\c2ccc(F)cc2)C1	inactive
Nc1c(C(=O)NCC2CCCO2)sc2nc3c(c(-c4ccco4)c12)CC/C3=C\c1ccco1 (stereo unspecified)	1.35 µM
Oc1ccc(NCc2ccccc2OCc2ccccc2)cc1	> 36.5 µM (inactive)
CN(C)c1ccc(O)c2c1CC1CC3[C@@H](N(C)C)C(=O)C(C(N)=O)=C(O)[C@]3(O)C(=O)C1=C2O (stereo partly specified)	3.74 µM
O=c1c(-c2c(O)cc(O)c3c(=O)cc(-c4ccc(O)cc4)oc23)c(-c2ccc(O)cc2)oc2cc(O)cc(O)c12	4.23 µM
O=c1[nH]c2cc3c(cc2cc1CN(Cc1cccnc1)Cc1nnnn1Cc1ccco1)OCCO3	inactive
C=C(C)C(=O)Oc1ccc(N=Nc2ccc(C)cc2)ccc1=O	3.48 µM
O=C(O)c1ccc(-n2cccc2/C=C2/SC(=O)N(CC(=O)N3CCCC3)C2=O)cc1	2.46 µM
C=C(C)C(=O)Nc1cccc(C2=NOC3(C2)C[C@@H](C(N)=O)N(C(=O)/C=C/C=C/C)C3)c1 (stereo partly specified)	3.25 µM
COc1ccc(/C=C/C(=O)N2CCCc3ccccc32)cc1	> 36.6 µM (inactive)
